Test results reported in patent US11339161B2, “Triazolo pyridines as modulators of gamma-secretase” (Boehringer Ingelheim International GmbH, priority 2017, dated 2022).
Like-named read-outs stand apart in the source and are kept apart here.

Columns and labels:
[1] = molecular target: PDGFRA (PDGFR alpha) (Homo sapiens, UniProt P16234); assay: Z'-LYTE SelectScreen biochemical kinase assay PDGFRA (PDGFR alpha)
From the text: (§1) Thermo Fisher Scientific SelectScreen™ Biochemical Kinase Profiling Service Z′-LYTE™ Screening Protocol and Assay Conditions Assay Theory
(§2) The […] biochemical assay employs a fluorescence-based, coupled-enzyme format and is based on the differential sensitivity of phosphorylated and non-phosphorylated peptides to proteolytic cleavage. The peptide substrate is labeled with two fluorophores—one at each end—that make up a FRET pair. In the primary reaction, the kinase transfers the gamma-phosphate of ATP to a single tyrosine, serine or threonine residue in a synthetic FRET-peptide. In the secondary reaction, a site-specific protease recognizes and cleaves non-phosphorylated FRET-peptides. Phosphorylation of FRET-peptides suppresses cleavage by the Development Reagent. Cleavage disrupts FRET between the donor (i.e., coumarin) and acceptor (i.e., fluorescein) fluorophores on the FRET-peptide, whereas uncleaved, phosphorylated FRET-peptides maintain FRET. A ratiometric method, which calculates the ratio (Emission Ratio=Coumarin emission (445 nm)/Fluorescein emission (520 nm)) of donor emission to acceptor emission after excitation of the donor fluorophore at 400 nm, is used to quantitate reaction progress, as shown in the equation below. A significant benefit of this ratiometric method for quantitating reaction progress is the elimination of well-to-well variations in FRET-peptide concentration and signal intensities. As a result, the assay yields very high Z′-factor values (>0.7) at a low percent phosphorylation. Both cleaved and uncleaved FRET-peptides contribute to the fluorescence signals and therefore to the Emission Ratio. The extent of phosphorylation of the FRET-peptide can be calculated from the Emission Ratio. The Emission Ratio will remain low if the FRET-peptide is phosphorylated (i.e., no kinase inhibition) and will be high if the FRET-peptide is non-phosphorylated (i.e., kinase inhibition).
(§3) The Test Compounds are screened in 1% DMSO (final) in the well. For 10 point titrations, 3-fold serial dilutions are conducted from the starting concentration of the customer's choosing.
(§4) All Peptide/Kinase Mixtures are diluted to a 2× working concentration in the appropriate Kinase Buffer (see section Kinase Specific Assay Conditions for a complete description).
(§5) All ATP Solutions are diluted to a 4× working concentration in Kinase Buffer (50 mM HEPES pH 7.5, 0.01% BRIJ-35, 10 mM MgCl2, 1 mM EGTA). ATP Km apparent is previously determined using a Z″-LYTE assay.
(§6) The Development Reagent is diluted in Development Buffer (see section Kinase-Specific Assay Conditions—Direct and Cascade for a complete description).
(§7) Bar-coded Corning, low volume NBS, black 384-well plate (Corning Cat. #4514) • 1. 100 nL—100× Test Compound in 100% DMSO • 2. 2.4 μL—Kinase buffer • 3. 5 μL—2× Peptide/Kinase Mixture • 4. 2.5 μL—4×ATP Solution • 5. 30—second plate shake • 6. 60—minute Kinase Reaction incubation at room temperature • 7. 5 μL—Development Reagent Solution • 8. 30—second plate shake • 9. 60—minute Development Reaction incubation at room temperature • 10. Read on fluorescence plate reader and analyze the data Z′-LYTE Assay Controls
(§8) SelectScreen Kinase Profiling Service uses XLfit from IDBS. The dose response curve is curve fit to model number 205 (sigmoidal dose-response model).
The 2×PDGFRA (PDGFR alpha)/Tyr 04 mixture is prepared in 50 mM HEPES pH 7.5, 0.01% BRIJ-35, 10 mM MgCl2, 4 mM MnCl2, 1 mM EGTA, 2 mM DTT. The final 10 μL Kinase Reaction consists of 1.54-22.6 ng PDGFRA (PDGFR alpha) and 2 μM Tyr 04 in 50 mM HEPES pH 7.5, 0.01% BRIJ-35, 10 mM MgCl2, 2 mM MnCl2, 1 mM EGTA, 1 mM DTT. After the 1 hour Kinase Reaction incubation, 5 μL of a 1:64 dilution of Development Reagent B is added.

[2] = molecular target: RET (Homo sapiens, UniProt P07949); assay: Z'-LYTE SelectScreen biochemical kinase assay RET
RET, sequence (P07949 29-1114): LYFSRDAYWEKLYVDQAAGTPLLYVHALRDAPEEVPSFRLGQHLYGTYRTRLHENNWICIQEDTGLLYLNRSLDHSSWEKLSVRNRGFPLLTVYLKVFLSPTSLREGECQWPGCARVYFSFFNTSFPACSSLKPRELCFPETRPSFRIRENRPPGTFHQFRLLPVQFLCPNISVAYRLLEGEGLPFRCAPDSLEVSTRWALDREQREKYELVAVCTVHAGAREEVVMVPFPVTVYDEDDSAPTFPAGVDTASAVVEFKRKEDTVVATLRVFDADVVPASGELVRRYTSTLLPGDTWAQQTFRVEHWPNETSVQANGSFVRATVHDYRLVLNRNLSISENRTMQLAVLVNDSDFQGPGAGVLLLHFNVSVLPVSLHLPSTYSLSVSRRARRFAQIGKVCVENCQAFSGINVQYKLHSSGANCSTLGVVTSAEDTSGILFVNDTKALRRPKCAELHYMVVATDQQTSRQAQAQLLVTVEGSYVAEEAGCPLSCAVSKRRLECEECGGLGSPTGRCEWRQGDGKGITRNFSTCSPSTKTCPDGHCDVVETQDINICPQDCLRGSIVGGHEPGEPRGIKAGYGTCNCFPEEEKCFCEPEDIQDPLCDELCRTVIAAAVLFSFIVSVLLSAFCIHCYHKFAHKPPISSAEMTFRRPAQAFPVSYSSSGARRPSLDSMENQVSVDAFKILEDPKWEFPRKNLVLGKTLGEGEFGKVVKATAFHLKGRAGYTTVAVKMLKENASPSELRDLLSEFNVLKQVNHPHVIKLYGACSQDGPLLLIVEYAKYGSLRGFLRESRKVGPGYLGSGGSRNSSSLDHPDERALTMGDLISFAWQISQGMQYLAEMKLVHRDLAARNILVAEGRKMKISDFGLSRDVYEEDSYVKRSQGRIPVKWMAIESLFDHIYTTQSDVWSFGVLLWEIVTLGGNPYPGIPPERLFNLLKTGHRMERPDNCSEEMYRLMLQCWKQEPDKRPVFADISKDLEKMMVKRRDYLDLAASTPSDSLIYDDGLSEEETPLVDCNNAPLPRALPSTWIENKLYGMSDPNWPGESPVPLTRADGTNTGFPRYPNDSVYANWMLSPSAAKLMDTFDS
From the text: as §1, §2, §3, §4, §5, §6, §7, §8
(§9) The 2×RET/Tyr 02 mixture is prepared in 50 mM HEPES pH 7.5, 0.01% BRIJ-35, 10 mM MgCl2, 1 mM EGTA. The final 10 μL Kinase Reaction consists of 0.49-3.64 ng RET and 2 μM Tyr 02 in 50 mM HEPES pH 7.5, 0.01% BRIJ-35, 10 mM MgCl2, 1 mM EGTA. After the 1 hour Kinase Reaction incubation, 5 μL of a 1:128 dilution of Development Reagent A is added.

[3] = molecular target: PTK2 (FAK) (Homo sapiens, UniProt Q05397); assay: Z'-LYTE SelectScreen biochemical kinase assay PTK2 (FAK)
PTK2 (FAK), sequence (Q05397 whole entry): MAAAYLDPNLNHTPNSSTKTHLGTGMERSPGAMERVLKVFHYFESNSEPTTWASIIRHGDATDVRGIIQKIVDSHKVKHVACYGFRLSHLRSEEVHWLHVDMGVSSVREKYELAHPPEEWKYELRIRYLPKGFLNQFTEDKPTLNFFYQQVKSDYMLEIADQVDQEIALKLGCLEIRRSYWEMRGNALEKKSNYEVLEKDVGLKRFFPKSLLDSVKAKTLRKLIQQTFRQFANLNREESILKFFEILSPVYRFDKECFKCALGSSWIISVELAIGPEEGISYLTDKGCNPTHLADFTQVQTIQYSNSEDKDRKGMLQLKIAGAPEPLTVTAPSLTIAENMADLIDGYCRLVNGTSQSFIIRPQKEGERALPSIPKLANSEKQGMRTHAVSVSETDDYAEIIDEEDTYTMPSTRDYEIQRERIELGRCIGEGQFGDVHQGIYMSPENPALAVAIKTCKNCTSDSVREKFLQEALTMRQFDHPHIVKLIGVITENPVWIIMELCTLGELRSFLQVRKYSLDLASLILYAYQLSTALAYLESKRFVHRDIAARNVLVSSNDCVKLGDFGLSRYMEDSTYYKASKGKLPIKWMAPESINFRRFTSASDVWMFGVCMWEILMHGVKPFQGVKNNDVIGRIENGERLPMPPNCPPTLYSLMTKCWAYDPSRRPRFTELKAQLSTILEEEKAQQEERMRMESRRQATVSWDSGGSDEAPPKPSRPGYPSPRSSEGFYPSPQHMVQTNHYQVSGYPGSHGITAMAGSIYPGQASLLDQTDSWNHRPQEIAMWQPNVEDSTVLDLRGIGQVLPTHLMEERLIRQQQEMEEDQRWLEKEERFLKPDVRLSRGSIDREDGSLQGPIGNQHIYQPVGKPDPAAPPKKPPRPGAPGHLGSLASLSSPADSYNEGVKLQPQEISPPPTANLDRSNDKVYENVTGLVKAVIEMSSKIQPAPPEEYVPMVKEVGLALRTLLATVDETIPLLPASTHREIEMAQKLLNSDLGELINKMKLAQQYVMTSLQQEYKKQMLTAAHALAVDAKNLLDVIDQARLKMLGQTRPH
From the text: as §1, §2, §3, §4, §5, §6, §7, §8
as §9, with “The 2×PTK2 (FAK)/Tyr 07” for “The 2×RET/Tyr 02”, “of 12.5-100” for “of 0.49-3.64”, “ng PTK2 (FAK)” for “ng RET”, “Tyr 07” for “Tyr 02”, “a 1:16” for “a 1:128”, “Reagent B” for “Reagent A”

[4] = molecular target: RPS6KB1 (p70S6K) (Homo sapiens, UniProt P23443); assay: Z'-LYTE SelectScreen biochemical kinase assay RPS6KB1 (p70S6K)
RPS6KB1 (p70S6K), sequence (P23443 whole entry): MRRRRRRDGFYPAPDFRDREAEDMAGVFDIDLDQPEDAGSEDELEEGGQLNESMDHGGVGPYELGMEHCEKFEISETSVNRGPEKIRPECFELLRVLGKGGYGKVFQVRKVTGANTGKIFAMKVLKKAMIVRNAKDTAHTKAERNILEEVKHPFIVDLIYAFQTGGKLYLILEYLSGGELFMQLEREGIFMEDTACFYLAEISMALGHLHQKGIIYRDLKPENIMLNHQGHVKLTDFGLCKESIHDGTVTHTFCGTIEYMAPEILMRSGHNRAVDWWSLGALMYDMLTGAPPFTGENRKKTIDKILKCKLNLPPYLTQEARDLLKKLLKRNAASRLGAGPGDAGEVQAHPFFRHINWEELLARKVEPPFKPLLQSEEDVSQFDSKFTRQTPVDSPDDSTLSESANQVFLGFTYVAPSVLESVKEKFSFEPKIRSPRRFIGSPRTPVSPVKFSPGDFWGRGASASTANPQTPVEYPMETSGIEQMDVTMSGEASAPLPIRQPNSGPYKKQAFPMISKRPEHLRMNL
From the text: as §1, §2, §3, §4, §5, §6, §7, §8
as §9, with “2×RPS6 KB1 (p70S6K)/Ser/Thr 07” for “2×RET/Tyr 02”, “2.87-17.7” for “0.49-3.64”, “RPS6 KB1 (p70S6K)” for “RET”, “Ser/Thr 07” for “Tyr 02”, “1:45000” for “1:128”

[5] = 10 μmolar compound concentration, ATP at Km app, read-out: PDGFRA (PDGFR alpha) inhibition
[6] = read-out: % Inhibition mean PDGFRA (PDGFR alpha)
[7] = 10 μmolar compound concentration, ATP at Km app, read-out: RET inhibition
[8] = read-out: % Inhibition mean RET
[9] = 10 μmolar compound concentration, ATP at Km app, read-out: PTK2 (FAK) inhibition
[10] = read-out: % Inhibition mean PTK2 (FAK)
[11] = 10 μmolar compound concentration, ATP at Km app, read-out: RPS6KB1 (p70S6K) inhibition
[12] = read-out: % Inhibition mean RPS6KB1 (p70S6K)

PDGFRA (PDGFR alpha), sequence (P16234 24-1089): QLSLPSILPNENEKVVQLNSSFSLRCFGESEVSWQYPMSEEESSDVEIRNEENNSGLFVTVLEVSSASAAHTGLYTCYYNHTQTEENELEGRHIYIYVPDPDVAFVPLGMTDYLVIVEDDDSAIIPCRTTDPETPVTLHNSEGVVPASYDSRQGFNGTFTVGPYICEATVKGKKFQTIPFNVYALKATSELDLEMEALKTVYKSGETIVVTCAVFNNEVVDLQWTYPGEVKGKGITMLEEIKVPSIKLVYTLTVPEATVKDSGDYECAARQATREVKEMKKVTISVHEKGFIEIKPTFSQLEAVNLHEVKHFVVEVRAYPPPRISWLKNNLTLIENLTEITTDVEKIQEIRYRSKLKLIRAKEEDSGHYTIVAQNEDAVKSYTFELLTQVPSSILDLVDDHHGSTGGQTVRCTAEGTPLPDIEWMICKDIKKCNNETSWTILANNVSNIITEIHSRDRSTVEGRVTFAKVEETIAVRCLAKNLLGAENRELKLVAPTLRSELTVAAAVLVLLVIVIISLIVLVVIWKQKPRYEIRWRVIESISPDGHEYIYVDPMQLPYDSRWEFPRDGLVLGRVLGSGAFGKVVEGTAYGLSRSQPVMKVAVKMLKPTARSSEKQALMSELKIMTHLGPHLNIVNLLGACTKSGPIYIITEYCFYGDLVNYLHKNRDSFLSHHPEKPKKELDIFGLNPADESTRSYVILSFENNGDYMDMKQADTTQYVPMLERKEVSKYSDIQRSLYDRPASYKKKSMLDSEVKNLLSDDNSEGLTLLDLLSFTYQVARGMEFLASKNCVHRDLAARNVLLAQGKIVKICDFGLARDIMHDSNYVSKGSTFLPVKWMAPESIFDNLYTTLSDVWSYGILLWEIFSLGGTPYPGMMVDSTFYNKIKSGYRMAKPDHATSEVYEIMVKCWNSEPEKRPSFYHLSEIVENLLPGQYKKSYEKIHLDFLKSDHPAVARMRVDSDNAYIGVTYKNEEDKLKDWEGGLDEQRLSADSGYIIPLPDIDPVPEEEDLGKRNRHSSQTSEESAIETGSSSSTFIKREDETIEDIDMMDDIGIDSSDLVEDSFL

inhibition at 10 µM [1, 5] [%]	inhibition at 10 µM [1, 6] [%]	inhibition at 10 µM [2, 7] [%]	inhibition at 10 µM [2, 8] [%]	inhibition at 10 µM [3, 9] [%]	inhibition at 10 µM [3, 10] [%]	inhibition at 10 µM [4, 11] [%]	inhibition at 10 µM [4, 12] [%]	Compound
< 40	5	< 40	20	< 40	15	< 40	12	Cc1cc(F)ccc1-c1cccn2nc(NC3CCc4c(cnn4C(C)C)C3)nc12 (centres unmarked) [Example 44, [8-(4-fluoro-2-methyl-phenyl)-[1,2,4]triazolo[1,5-a]pyridine-2-yl]-(1-isopropyl-4,5,6,7-tetrahydro-1H-indazol-5-yl)-amine]
< 40	30	< 40	30	< 40	20	< 40	7	Cc1cc(F)ccc1-c1cccn2nc(NC3CCc4c(cnn4CC(C)C)C3)nc12 (centres unmarked) [Example 45, [8-(4-fluoro-2-methyl-phenyl)-[1,2,4]triazolo[1,5-a]pyridine-2-yl]-(1-isobutyl-4,5,6,7-tetrahydro-1H-indazol-5-yl)-amine]
< 40	25	< 40	26	< 40	24	< 40	6	CCCCn1ncc2c1CCC(Nc1nc3c(-c4ccc(F)cc4C)cccn3n1)C2 (centres unmarked) [Example 46, [8-(4-fluoro-2-methyl-phenyl)-[1,2,4]triazolo[1,5-a]pyridine-2-yl]-(1-butyl-4,5,6,7-tetrahydro-1H-indazol-5-yl)-amine]
< 40	10	< 40	23	< 40	19	< 40	12	CCCCCn1ncc2c1CCC(Nc1nc3c(-c4ccc(F)cc4C)cccn3n1)C2 (centres unmarked) [Example 47, [8-(4-fluoro-2-methyl-phenyl)-[1,2,4]triazolo[1,5-a]pyridine-2-yl]-(1-pentyl-4,5,6,7-tetrahydro-1H-indazol-5-yl)-amine]
< 40	19	< 40	18	< 40	24	< 40	15	CCn1nc(Cl)c2c1CCC(Nc1nc3c(-c4ccc(F)cc4C)cccn3n1)C2 (centres unmarked) [Example 48, (3-Chloro-1-ethyl-4,5,6,7-tetrahydro-1H-indazol-5-yl)-[8-(4-fluoro-2-methyl-phenyl)-[1,2,4]triazolo[1,5-a]pyridine-2-yl]-amine]
< 40	29	< 40	22	< 40	32	< 40	33	CCn1ncc2c1C(C)CC(Nc1nc3c(-c4cc(F)c(F)c(F)c4)cccn3n1)C2 (centres unmarked) [Example 49, (1-Ethyl-7-methyl-4,5,6,7-tetrahydro-1H-indazol-5-yl)-[8-(3,4,5-trifluoro-phenyl)-[1,2,4]triazolo[1,5-a]pyridine-2-yl]-amine]
< 40	14	< 40	2	< 40	27	< 40	1	CCn1nnc2c1CCC(Nc1nc3c(-c4ccc(F)cc4C)cccn3n1)C2 (centres unmarked) [Example 51, (1-Ethyl-4,5,6,7-tetrahydro-1H-benzotriazol-5-yl)-[8-(4-fluoro-2-methyl-phenyl)-[1,2,4]triazolo[1,5-a]pyridine-2-yl]-amine]
< 40	30	< 40	15	< 40	14	< 40	1	CCc1nn(C)c2c1CCC(Nc1nc3c(-c4ccc(F)cc4C)cccn3n1)C2 (centres unmarked) [Example 54, (3-Ethyl-1-methyl-4,5,6,7-tetrahydro-1H-indazol-6-yl)-[8-(4-fluoro-2-methyl-phenyl)-[1,2,4]triazolo[1,5-a]pyridine-2-yl]-amine]
< 40	16	< 40	21	< 40	8	< 40	11	CCn1ncc2c1CCC(Nc1nc3c(-c4ccc(F)cc4)cccn3n1)C2 (centres unmarked) [Example 55, (1-Ethyl-4,5,6,7-tetrahydro-1H-indazol-5-yl)-[8-(4-fluoro-phenyl)-[1,2,4]triazolo[1,5-a]pyridine-2-yl]-amine]
< 40	21	< 40	27	< 40	15	< 40	1	CCn1ncc2c1CCC(Nc1nc3c(-c4ccccc4C)cccn3n1)C2 (centres unmarked) [Example 56, (1-Ethyl-4,5,6,7-tetrahydro-1H-indazol-5-yl)-[8-(2-methyl-phenyl)-[1,2,4]triazolo[1,5-a]pyridine-2-yl]-amine]
< 40	29	< 40		< 40	16	< 40		CCn1ncc2c1CCC(Nc1nc3c(-c4ccccc4)cccn3n1)C2 (centres unmarked) [Example 57, (1-Ethyl-4,5,6,7-tetrahydro-1H-indazol-5-yl)-(8-phenyl-[1,2,4]triazolo[1,5-a]pyridine-2-yl)-amine]
